In patent US7220563B2 (priority 2002, dated 2007):

Test system: recombinant GAO
Type: biochemical

For `O=S(=O)([O-])[O-].[Cu+2]` [CuSO4, copper sulfate], the “concentration sufficient to activate recombinant GAO” value was 0.1 mM, the “effect on GAO activity” value was “slightly inhibited” and the “preferred concentration for activating crude enzyme solution” value was 0.4 mM.

`O=C(O)CN(CCN(CC(=O)O)CC(=O)O)CC(=O)O` [EDTA] was tested, and the “effect on activation of the recombinant GAO” value (“effect on activation” below) was “did not affect activation”.

With cobalt the “effect on activation” value was “did not affect activation”.

In the case of iron, the “effect on activation” value is reported as “did not affect activation”.

In the case of manganese, the “effect on activation” value is reported as “did not affect activation”.

In the case of nickel, the “effect on activation” value is reported as “did not affect activation”.
